Results published in patent US5849753A, “Pyridyl imidazole derivatives and processes for the preparation thereof” (Korea Research Institute of Chemical Technology, priority 1994, dated 1998).

tested on: angiotensin II receptor; experiment: Angiotensin II Receptor Binding Assay ([3H] angiotensin II binding inhibition); conditions: [3H] angiotensin II ligand; 60 minutes, 25° C.; test concentration not given
Method: In accordance with the procedure disclosed in Chiu, A. T. et al., Eur. J. Pharm., 157, 13(1981), a ligand marked with a radioisotope was reacted with an angiotensin II receptor and the reactant was filtered with a glass fiber to remove unreacted ligand. After washing the filter, the amount of the remaining isotope was measured to determine the binding activity of the ligand, as described below in detail.
Sprague-Dawley rats and Wistar rats of 250 to 350 g(from The Korea Research Institute of Chemical Technology) were tested and the test procedures were carried out at 4° C., unless otherwise specified. Adrenal gland was separated from the Sprague-Dawley rats(liver, in the case of Wistar rats) into cortex and medulla. The separated adrenal cortex and medulla were washed with a sucrose buffer solution (0.2M sucrose, 1 mM EDTA, 10 mM Tris, pH 7.2) and homogenized in the same buffer solution by using a Teflon pestle and a Brinkmann homogenizer. The homogenates were centrifuged at 3,000 Xg for 10 minutes to remove precipitates and further centrifuged at 12,000 Xg for 13 minutes. The final supernatants were centrifuged at 102,000 Xg for 1 hour to obtain precipitates, which were washed with a Tris buffer solution(50 mM Tris, 5 mM MgCl2, pH 7.2) and re-centrifuged at 102,000 Xg for 1 hour. The resulting precipitates were immediately processed at the following step or stored at -70° C.
The precipitates were suspended in a Tris buffer solution. The amount of protein was determined by using a Bio-Rad DC protein analyzing kit and the protein concentration was adjusted to the amounts of: 0.2 to 0.3 mg/ml(Sprague-Dawley rat: adrenal cortex), 1.5 to 2.0 mg/ml(Sprague-Dawleyrat: adrenal medulla), and 1.5 to 2.0 mg/ml(Wistar rat: liver). To the suspension, bovine serum albumin(BSA) was added to a concentration of 0.25 wt % and the resultant was immediately processed at the following step or stored at -70° C.
(ii) Measurement of angiotensin II receptor binding capacity 50 μl(based on ligand) of [^3 H] angiotensin II(NEN, NET-446) and 10 μl of each of the test compounds with various concentrations were added to the buffer solution(50 mM Irris(pH 7.2), 5 mM MgCl2, 0.25% BSA) to adjust the final volume to be 0.5 ml. 100 μl of the receptor suspension was added thereto and the resulting solution was reacted for 60 minutes while stirring in a water bath at 25° C. 3 ml of cold buffer solution for analysis was added to cease the reaction. The isotope which was bound to the receptor was isolated from the resultant by using Brandel Cell Harvester System with Whatman glass fiber GF/C. After washing the filter, the radioactivity of the filter was determined by using a liquid scintillation counter. Binding inhibition(%) of the test compound was calculated as follows:
Binding Inhibition(%)=[{(T--B)-(S--B)}/(T--B)]×100
wherein T is cpm of the reaction product untreated with the test compound, S is cpm of the reaction product treated with the test compound, and B is cpm of blank test.

Structure (SMILES) | Binding Inhibition(%)
CCCCc1nc2cc(-c3ccccc3)c(C3SCCS3)nc2n1Cc1ccc(-c2ccccc2-c2nnn[nH]2)cc1 [Example 5, 2-butyl-5-(1,3-dithiolan-2-yl)-6-phenyl-3-[2'-(1H-tetrazol-5-yl)-biphenyl-4-ylmethyl]-3H-imidazo[4,5-b]pyridine] | 54.1
CCCCc1nc2cc(Br)c(C(OC)OC)nc2n1Cc1ccc(-c2ccccc2-c2nnn[nH]2)cc1 [Example 7, 2-butyl-5-dimethoxymethyl-6-bromo-3-[2'-(1H-tetrazol-5-yl)-biphenyl-4-ylmethyl]-3H-imidazo[4,5-b]pyridine] | 78.1
CCCCc1nc2cc(-c3ccc(F)cc3)c(C(OC)OC)nc2n1Cc1ccc(-c2ccccc2-c2nn[nH]n2)cc1 [Example 9, 2-butyl-5-dimethoxymethyl-6-(4-fluorophenyl-1-yl)-3-[2'-(1H-tetrazol-5-yl)-biphenyl-4-ylmethyl]-3H-imidazo[4,5-b]pyridine] | 45.2
CCCCc1nc2ccc(C(OC)OC)nc2n1Cc1ccc(-c2ccccc2-c2nnn[nH]2)cc1 [Example 10, 2-butyl-5-dimethoxymethyl-3-[2'-(1H-tetrazol-5-yl)-biphenyl-4-ylmethyl]-3H-imidazo[4,5-b]pyridine] | 83.6
CCCCc1nc2c(C)cc(C(OC)OC)nc2n1Cc1ccc(-c2ccccc2-c2nnn[nH]2)cc1 [Example 11, 2-butyl-5-dimethoxymethyl-7-methyl-3-[2'-(1H-tetrazol-5-yl)-biphenyl-4-ylmethyl]-3H-imidazo[4,5-b]pyridine] | 52.5
CCc1nc2c(C)cc(C(OC)OC)nc2n1Cc1ccc(-c2ccccc2-c2nnn[nH]2)cc1 [Example 12, 2-ethyl-5-dimethoxymethyl-7-methyl-3-[2'-(1H-tetrazol-5-yl)-biphenyl-4-ylmethyl]-3H-imidazo[4,5-b]pyridine] | 44.5
CCCCc1nc2cc(-c3cccs3)c(C(OC)OC)nc2n1Cc1ccc(-c2ccccc2-c2nnn[nH]2)cc1 [Example 14, 2-butyl-5-dimethoxymethyl-6-(thiophen-2-yl)-3-[2'-(1H-tetrazol-5-yl)-biphenyl-4-ylmethyl]-3H-imidazo[4,5-b]pyridine] | 72.0
CCCCc1nc2cc(-c3ccc(C)cc3)c(C(OC)OC)nc2n1Cc1ccc(-c2ccccc2-c2nn[nH]n2)cc1 [Example 16, 2-butyl-5-dimethoxymethyl-6-(4-methylphenyl-1-yl)-3-[2'-(1H-tetrazol-5-yl)-biphenyl-4-ylmethyl]-3H-imidazo[4,5-b]pyridine] | 68.5
CCCCc1nc2cc(-c3ccc(COCc4ccccc4)cc3)c(C(OC)OC)nc2n1Cc1ccc(-c2ccccc2-c2nn[nH]n2)cc1 [Example 17, 2-butyl-5-dimethoxymethyl-6-[4-(benzyloxymethyl)-phenyl-1-yl]-3-[2'-(1H-tetrazol-5-yl)-biphenyl-4-ylmethyl]-3H-imidazo[4,5-b]pyridine] | 82.0
CCCCc1nc2cc(-c3ccccc3N)c(C(OC)OC)nc2n1Cc1ccc(-c2ccccc2-c2nn[nH]n2)cc1 [Example 26, 2-butyl-5-dimethoxymethyl-6-(2-aminophenyl-1-yl)-3-[2'-(1H-tetrazol-5-yl)-biphenyl-4-ylmethyl]-3H-imidazo[4,5-b]pyridine] | 89.2
CCCCc1nc2cc(Cc3ccccc3)c(C(OC)OC)nc2n1Cc1ccc(-c2ccccc2-c2nnn[nH]2)cc1 [Example 27, 2-butyl-5-dimethoxymethyl-6-benzyl-3-[2'-(1H-tetrazol-5-yl)-biphenyl-4-ylmethyl]-3H-imidazo[4,5-b]pyridine] | 87.8
